Here are results for 27 molecules from patent US10695337B2, “Piperidin-4-yl azetidine derivatives as JAK1 inhibitors” (Incyte Corporation, priority 2010, dated 2020).

The structures appear in SMILES notation.

In the test the target is human JAK1 (a.a. 837-1142). The test is described as follows: In vitro JAK kinase assay (HTRF, phosphorylation of a biotinylated peptide), JAK1. It counts as biochemical. The note with it: measured at 1 mM ATP; JAK2 IC50 / JAK1 IC50. Put shortly: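 N-terminal His-tagged catalytic domains, baculovirus-expressed in insect cells, phosphorylated a biotinylated peptide for 1 hr at room temperature. EDTA stop was followed by SA-APC and Eu-Py20 antibody for 40 minutes, with phosphopeptide read by HTRF.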
Turning to `N#CCC1(n2ccc(-c3ncnc4[nH]ccc34)c2)CN(C2CCN(C(=O)Nc3ccccc3C#N)CC2)C1` [Example 287, 4-{3-(cyanomethyl)-3-[3-(7H-pyrrolo[2,3-d]pyrimidin-4-yl)-1H-pyrrol-1-yl]azetidin-1-yl}-N-(2-cyanophenyl)piperidine-1-carboxamide], the “IC50 Ratio JAK2/JAK1” value is 6.7. On to `COc1ccccc1NC(=O)N1CCC(N2CC(CC#N)(n3ccc(-c4ncnc5[nH]ccc45)c3)C2)CC1` [Example 288, 4-{3-(cyanomethyl)-3-[3-(7H-pyrrolo[2,3-d]pyrimidin-4-yl)-1H-pyrrol-1-yl]azetidin-1-yl}-N-(2-methoxyphenyl)piperidine-1-carboxamide], for which the “IC50 Ratio JAK2/JAK1” value stood at 9.0.

`N#CCC1(n2ccc(-c3ncnc4[nH]ccc34)c2)CN(C2CCN(C(=O)Nc3ncccc3C(F)(F)F)CC2)C1` [Example 290, 4-{3-(cyanomethyl)-3-[3-(7H-pyrrolo[2,3-d]pyrimidin-4-yl)-1H-pyrrol-1-yl]azetidin-1-yl}-N-[3-(trifluoromethyl)pyridin-2-yl]piperidine-1-carboxamide]: the “IC50 Ratio JAK2/JAK1” value worked out at 3.9. In the case of `N#CCC1(n2ccc(-c3ncnc4[nH]ccc34)c2)CN(C2CCN(C(=O)Nc3ncccc3F)CC2)C1` [Example 292, 4-{3-(cyanomethyl)-3-[3-(7H-pyrrolo[2,3-d]pyrimidin-4-yl)-1H-pyrrol-1-yl]azetidin-1-yl}-N-(3-fluoropyridin-2-yl)piperidine-1-carboxamide] it was 9.1.

With `N#CCC1(n2ccc(-c3ncnc4[nH]ccc34)c2)CN(C2CCN(C(=O)Nc3ccc(Cl)cc3C#N)CC2)C1` [Example 293, 4-{3-(cyanomethyl)-3-[3-(7H-pyrrolo[2,3-d]pyrimidin-4-yl)-1H-pyrrol-1-yl]azetidin-1-yl}-N-(4-chloro-2-cyanophenyl)piperidine-1-carboxamide], the “IC50 Ratio JAK2/JAK1” value was determined as 3.4.

Regarding `N#CCC1(n2cc(-c3ccnc4[nH]ccc34)cn2)CN(C2CCN(C(=O)c3ccc(C#N)cc3F)CC2)C1` [Example 295, 4-[(4-{3-(cyanomethyl)-3-[4-(1H-pyrrolo[2,3-b]pyridin-4-yl)-1H-pyrazol-1-yl]azetidin-1-yl}piperidin-1-yl)cabonyl]-3-fluorobenzonitrile], the “IC50 Ratio JAK2/JAK1” value is reported as 5.1. Regarding `N#CCC1(n2cc(-c3ccnc4[nH]ccc34)cn2)CN(C2CCN(C(=O)c3ccc(O)c(F)c3)CC2)C1` [Example 296], the “IC50 Ratio JAK2/JAK1” value turned out to be 4.6.

Take `N#CCC1(n2cc(-c3ccnc4[nH]ccc34)cn2)CN(C2CCN(C(=O)c3ccc(O)cc3F)CC2)C1` [Example 297, {1-[1-(2-fluoro-4-hydroxybenzoyl)piperidin-4-yl]-3-[4-(1H-pyrrolo[2,3-b]pyridin-4-yl)-1H-pyrazol-1-yl]azetidin-3-yl}acetonitrile]: the “IC50 Ratio JAK2/JAK1” value worked out at 10.0. As for `N#CCC1(n2cc(-c3ccnc4[nH]ccc34)cn2)CN(C2CCN(C(=O)c3cc(C(F)(F)F)ncc3Cl)CC2)C1` [Example 298, {1-{1-[5-chloro-2-(trifluoromethyl)isonicotinoyl]piperidin-4-yl}-3-[4-(1H-pyrrolo[2,3-b]pyridin-4-yl)-1H-pyrazol-1-yl]azetidin-3-yl}acetonitrile], the figure is 2.8; as for `N#CCC1(n2cc(-c3ccnc4[nH]ccc34)cn2)CN(C2CCN(C(=O)c3ccnc(C(F)(F)F)n3)CC2)C1` [Example 299, [3-[4-(1H-pyrrolo[2,3-b]pyridin-4-yl)-1H-pyrazol-1-yl]-1-(1-{[2-(trifluoromethyl)pyrimidin-4-yl]carbonyl}piperidin-4-yl)azetidin-3-yl]acetonitrile], 6.6.

Consider `N#CCC1(n2cc(-c3ccnc4[nH]ccc34)cn2)CN(C2CCN(C(=O)c3cnc(C(F)(F)F)cn3)CC2)C1` [Example 301, [3-[4-(1H-pyrrolo[2,3-b]pyridin-4-yl)-1H-pyrazol-1-yl]-1-(1-{[5-(trifluoromethyl)pyrazin-2-yl]carbonyl}piperidin-4-yl)azetidin-3-yl]acetonitrile], for which the “IC50 Ratio JAK2/JAK1” value is 3.3.

`N#CCC1(n2cc(-c3ccnc4[nH]ccc34)cn2)CN(C2CCN(C(=O)C3CCC(F)(F)CC3)CC2)C1` [Example 302, {1-{1-[(4,4-difluorocyclohexyl)carbonyl]piperidin-4-yl}-3-[4-(1H-pyrrolo[2,3-b]pyridin-4-yl)-1H-pyrazol-1-yl]azetidin-3-yl}acetonitrile]: the “IC50 Ratio JAK2/JAK1” value is listed as 6.5.

On to `N#CCC1(n2cc(-c3ccnc4[nH]ccc34)cn2)CN(C2CCN(C(=O)Nc3ccc(F)cc3Cl)CC2)C1` [Example 305, N-(2-chloro-4-fluorophenyl)-4-{3-(cyanomethyl)-3-[4-(1H-pyrrolo[2,3-b]pyridin-4-yl)-1H-pyrazol-1-yl]azetidin-1-yl}piperidine-1-carboxamide], for which the “IC50 Ratio JAK2/JAK1” value is 16.0. Regarding `COc1ncccc1NC(=O)N1CCC(N2CC(CC#N)(n3cc(-c4ccnc5[nH]ccc45)cn3)C2)CC1` [Example 306, 4-{3-(cyanomethyl)-3-[4-(1H-pyrrolo[2,3-b]pyridin-4-yl)-1H-pyrazol-1-yl]azetidin-1-yl}-N-(2-methoxypyridin-3-yl)piperidine-1-carboxamide], the “IC50 Ratio JAK2/JAK1” value is 3.5.

Consider `N#CCC1(n2cc(-c3ccnc4[nH]ccc34)cn2)CN(C2CCN(C(=O)Nc3ccncc3C(F)(F)F)CC2)C1` [Example 307, 4-{3-(cyanomethyl)-3-[4-(1H-pyrrolo[2,3-b]pyridin-4-yl)-1H-pyrazol-1-yl]azetidin-1-yl}-N-[3-(trifluoromethyl)pyridin-4-yl]piperidine-1-carboxamide], for which the “IC50 Ratio JAK2/JAK1” value was found to be 8.8.

With `N#CCC1(n2cc(-c3ccnc4[nH]ccc34)cn2)CN(C2CCN(C(=O)Nc3ccccc3F)CC2)C1` [Example 309, 4-{3-(cyanomethyl)-3-[4-(1H-pyrrolo[2,3-b]pyridin-4-yl)-1H-pyrazol-1-yl]azetidin-1-yl}-N-(2-fluorophenyl)piperidine-1-carboxamide], the “IC50 Ratio JAK2/JAK1” value was found to be 5.3. As for `N#CCC1(n2cc(-c3ccnc4[nH]ccc34)cn2)CN(C2CCN(C(=O)Nc3ccccc3Cl)CC2)C1` [Example 310, N-(2-chlorophenyl)-4-{3-(cyanomethyl)-3-[4-(1H-pyrrolo[2,3-b]pyridin-4-yl)-1H-pyrazol-1-yl]azetidin-1-yl}piperidine-1-carboxamide], the figure is 9.0. With `N#CCC1(n2cc(-c3ccnc4[nH]ccc34)cn2)CN(C2CCN(C(=O)Nc3ccc(C#N)cc3F)CC2)C1` [Example 312, N-(4-cyano-2-fluorophenyl)-4-{3-(cyanomethyl)-3-[4-(1H-pyrrolo[2,3-b]pyridin-4-yl)-1H-pyrazol-1-yl]azetidin-1-yl}piperidine-1-carboxamide], the “IC50 Ratio JAK2/JAK1” value came out at 5.3.

Regarding `N#CCC1(n2cc(-c3c(F)cnc4[nH]ccc34)cn2)CN(C2CCN(C(=O)c3ccnc(C(F)(F)F)c3F)CC2)C1` [Example 314, (3-[4-(5-Fluoro-1H-pyrrolo[2,3-b]pyridin-4-yl)-1H-pyrazol-1-yl]-1-{1-[3-fluoro-2-(trifluoromethyl)isonicotinoyl]piperidin-4-yl}azetidin-3-yl)acetonitrile], the “IC50 Ratio JAK2/JAK1” value came out at 11.0. In the case of `N#CCC1(n2cc(-c3c(F)cnc4[nH]ccc34)cn2)CN(C2CCN(C(=O)c3cc(F)cc(C#N)c3)CC2)C1` [Example 316, 3-[(4-{3-(cyanomethyl)-3-[4-(5-fluoro-1H-pyrrolo[2,3-b]pyridin-4-yl)-1H-pyrazol-1-yl]azetidin-1-yl}piperidin-1-yl)carbonyl]-5-fluorobenzonitrile] it was 9.5. Consider `N#CCC1(n2cc(-c3c(F)cnc4[nH]ccc34)cn2)CN(C2CCN(C(=O)c3ccc(C#N)cc3F)CC2)C1` [Example 317, 4-[(4-{3-(cyanomethyl)-3-[4-(5-fluoro-1H-pyrrolo[2,3-b]pyridin-4-yl)-1H-pyrazol-1-yl]azetidin-1-yl}piperidin-1-yl)carbonyl]-3-fluorobenzonitrile], for which the “IC50 Ratio JAK2/JAK1” value is 4.5.

As to `N#CCC1(n2cc(-c3c(F)cnc4[nH]ccc34)cn2)CN(C2CCN(C(=O)c3ccc(F)c(C#N)c3)CC2)C1` [Example 318, 5-[(4-{3-(cyanomethyl)-3-[4-(5-fluoro-1H-pyrrolo[2,3-b]pyridin-4-yl)-1H-pyrazol-1-yl]azetidin-1-yl}piperidin-1-yl)carbonyl]-2-fluorobenzonitrile], the “IC50 Ratio JAK2/JAK1” value is recorded as 4.7. Turning to `N#CCC1(n2cc(-c3c(F)cnc4[nH]ccc34)cn2)CN(C2CCN(C(=O)c3ccc(F)cn3)CC2)C1` [Example 319], the “IC50 Ratio JAK2/JAK1” value was 4.0. On to `N#CCC1(n2cc(-c3c(F)cnc4[nH]ccc34)cn2)CN(C2CCN(C(=O)c3ccncc3F)CC2)C1` [Example 320, {1-[1-(3-fluoroisonicotinoyl)piperidin-4-yl]-3-[4-(5-fluoro-1H-pyrrolo[2,3-b]pyridin-4-yl)-1H-pyrazol-1-yl]azetidin-3-yl}acetonitrile], for which the “IC50 Ratio JAK2/JAK1” value amounted to 2.8. In the case of `N#CCC1(n2cc(-c3c(F)cnc4[nH]ccc34)cn2)CN(C2CCN(C(=O)c3c(F)cncc3F)CC2)C1` [Example 321, {1-[1-(3,5-difluoroisonicotinoyl)piperidin-4-yl]-3-[4-(5-fluoro-1H-pyrrolo[2,3-b]pyridin-4-yl)-1H-pyrazol-1-yl]azetidin-3-yl}acetonitrile] it was 3.0; in that of `N#CCC1(n2cc(-c3c(F)cnc4[nH]ccc34)cn2)CN(C2CCN(C(=O)c3ccc(O)c(F)c3)CC2)C1` [Example 322, {1-[1-(3-fluoro-4-hydroxybenzoyl)piperidin-4-yl]-3-[4-(5-fluoro-1H-pyrrolo[2,3-b]pyridin-4-yl)-1H-pyrazol-1-yl]azetidin-3-yl}acetonitrile], 4.7; in that of `N#CCC1(n2cc(-c3c(F)cnc4[nH]ccc34)cn2)CN(C2CCN(C(=O)c3ccc(O)cc3F)CC2)C1` [Example 323, {1-[1-(2-fluoro-4-hydroxybenzoyl)piperidin-4-yl]-3-[4-(5-fluoro-1H-pyrrolo[2,3-b]pyridin-4-yl)-1H-pyrazol-1-yl]azetidin-3-yl}acetonitrile], 5.0.
